Where a name gives a salt, the structure may show the parent alone.
Columns and labels:
NK-2 receptors [1] = target: T1, NK-2 receptors (Rattus norvegicus, UniProt P16610); test: Binding to NK-2 receptors (inhibition of radioactive 125I-neurokinin A binding); format: Fischer strain male rats (duodenum membranes); conditions: rat duodenum membrane; 125I-neurokinin A 1×10^-9 M; 90 min, room temperature; read-out: IC50 of drugs in binding of radioactive neurokinin A
T1 construct: Duodenums isolated from Fischer strain male rats were homogenized; from tissue; host or cells: duodenum membranes of male Fischer rats
T1 sequence (P16610 1-390): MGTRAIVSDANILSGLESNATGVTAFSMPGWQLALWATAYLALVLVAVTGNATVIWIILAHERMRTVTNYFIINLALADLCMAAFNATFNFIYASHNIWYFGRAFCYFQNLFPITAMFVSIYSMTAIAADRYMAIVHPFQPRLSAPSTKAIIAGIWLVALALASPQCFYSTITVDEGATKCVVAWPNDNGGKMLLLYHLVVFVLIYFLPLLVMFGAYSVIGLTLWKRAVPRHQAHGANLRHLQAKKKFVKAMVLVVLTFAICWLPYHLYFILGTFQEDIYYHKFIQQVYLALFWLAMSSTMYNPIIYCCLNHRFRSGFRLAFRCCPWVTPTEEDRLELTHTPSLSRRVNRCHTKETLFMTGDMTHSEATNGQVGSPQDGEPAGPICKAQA
Protocol: Duodenums isolated from Fischer strain male rats were homogenized in 50 mM Tris-hydrochloric acid buffer (pH 7.4) containing saccharose (100 mg/ml) and ethylenediaminetetraacetic acid (1 mM), and the resulting homogenate was centrifuged at 48,000 g and 4° C. for 20 minutes. The pellet thus obtained was washed three times with 10 times as much 50 mM Tris-hydrochloric acid buffer (pH 7.4) containing KCl (300 mM) and ethylenediaminetetraacetic acid (10 mM) as the pellet by volume, and the resulting membrane preparation was suspended in 10 times as much 50 mM Tris-hydrochloric acid buffer (pH 7.4) as the membrane preparation by volume and stored at -80° C. until use. The membrane preparation (20 mg/ml) was incubated together with a radioactive ligand ^125 I-neurokinin A (1×10^-9 M) at room temperature for 90 minutes in the presence of each drug or a solvent therefor in 50 mM Tris-hydrochloricacid buffer (pH 7.4) containing bovine serum albumin (10 mg/ml), bacitracin (40 μg/ml), leupeptin (4 μg/ml), chymostatin (50 μg/ml), antipain (1×10^-4 M) and MnCl2 (1 mM). […] Then, radioactivity in the filter was measured with a gamma counter. The 50% inhibitory concentration (IC50) of the drug was determined by means of a regression line by considering radioactivity in the presence of Nle10 neurokinin A (4-10) (3×10^-6 M) to be due to nonspecific binding, and measuring the rate of inhibition of specific binding by the drug by carrying out a control experiment using the solvent alone.

NK-3 receptors = target: T2, NK-3 receptors (Cavia porcellus, UniProt P30098); test: Antagonism for NK-3 receptors (senktide induced contraction of isolated ileum); format: cell-based, Hartley strain male guinea pigs; conditions: guinea pig ileum; senctide 1×10^-9 M; 35 min incubation; read-out: IC50 of a drug on senctide induced contraction
T2 construct: the ileums were isolated; from tissue; host or cells: isolated ileum of male Hartley guinea pigs
T2 sequence (P30098 1-440): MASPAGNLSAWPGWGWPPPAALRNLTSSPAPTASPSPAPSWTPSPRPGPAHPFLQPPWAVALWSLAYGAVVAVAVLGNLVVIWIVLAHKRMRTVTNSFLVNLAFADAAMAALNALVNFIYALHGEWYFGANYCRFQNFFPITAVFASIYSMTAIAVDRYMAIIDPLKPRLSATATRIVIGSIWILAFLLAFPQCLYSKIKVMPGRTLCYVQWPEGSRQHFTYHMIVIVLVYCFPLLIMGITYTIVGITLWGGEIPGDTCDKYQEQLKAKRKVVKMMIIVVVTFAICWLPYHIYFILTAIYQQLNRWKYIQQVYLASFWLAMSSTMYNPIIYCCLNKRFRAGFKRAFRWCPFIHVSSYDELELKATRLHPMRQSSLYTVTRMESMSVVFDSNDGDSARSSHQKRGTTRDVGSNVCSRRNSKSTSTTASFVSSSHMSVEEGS
Protocol: Hartley strain male guinea pigs were killed by a blow on the head and blood-letting, and the ileums were isolated. A specimen of about 3 cm in length was prepared and then suspended at a tension of 0.5 gw in a magunus bath with an internal volume of 15 ml containing Krebs-Henseleit solution of 37° C. while introducing a mixed gas of 95% O2 and 5% CO2 into the bath. As the Krebs-Henseleit solution, that containing atropine (1×10^-6 M) and indomethacin (5×10^-6 M) was used for preventing the participation of intrinsic acetylcholine and prostaglandins. Senctide (1×10^-9 M), a specific stimulating agent for NK-3 receptors was repeatedly allowed to act on the specimen at intervals of 50 minutes. After the percentage of contraction due to senctide became constant, a drug was added to the solution to each of various concentrations, followed by incubation for 35 minutes, and senctide was allowed to act on the specimen again. The rate of inhibition by the drug was determined relative to the percentage of contraction immediately before the addition of the drug, and the 50% inhibitory concentration (IC50) was determined by means of a regression line.

NK-2 receptors [2] = test: Inhibitory effect on bronchoconstriction caused by stimulation of NK-2 receptors (Nle10 neurokinin A (4-10)); format: in vivo, Hartley strain male guinea pigs
Protocol: There were used non-treated Hartley strain male guinea pigs and Hartley strain male guinea pigs received to active sensitization by subcutaneous administration of 30 mg/kg of ovalbumin 14 to 21 days before. The guinea pigs were anesthetized with pentobarbital and a tube was inserted into the trachea of each guinea pig. The guinea pigs were subjected to positive pressure respiration by means of an artificial respiratory apparatus at 10 ml/kg and 60 times/minute. The pressure in the edge of the tube in the trachea was measured as an indication of bronchoconstriction. Spontaneous respiration was inhibited by administering succinylcholine. The non-treated guinea pigs were repeatedly and intravenously injected with 2 nmol/kg of Nle10 neurokinin A (4-10), a specific stimulating agent for NK-2 receptors at intervals of 10 minutes. After the bronchoconstriction thus caused became stable, each drug was administered intravenously, orally or in duodenum. Nle10 neurokinin A (4-10) was intravenously injected again 3 minutes after the intravenous administration or 50 minutes after the oral administration or the administration in duodenum. The rate of inhibition by the drug was determined relative to the bronchoconstriction before the drug administration.

[3] = system: bronchoconstriction caused by inhalation of an antigen; test: Inhibitory effect on bronchoconstriction caused by inhalation of antigen (ovalbumin); format: in vivo, Hartley strain male guinea pigs (active sensitization); conditions: 10 μmol/kg oral, 50 min before antigen inhalation; measured 8 min after
Protocol: There were used non-treated Hartley strain male guinea pigs and Hartley strain male guinea pigs received to active sensitization by subcutaneous administration of 30 mg/kg of ovalbumin 14 to 21 days before. The guinea pigs were anesthetized with pentobarbital and a tube was inserted into the trachea of each guinea pig. The guinea pigs were subjected to positive pressure respiration by means of an artificial respiratory apparatus at 10 ml/kg and 60 times/minute. The pressure in the edge of the tube in the trachea was measured as an indication of bronchoconstriction. Spontaneous respiration was inhibited by administering succinylcholine. […] The rate of inhibition by the drug was determined relative to the bronchoconstriction before the drug administration.
To the guinea pigs received to active sensitization, 4.6 μmol/kg of phosphoramidon was intravenously administered, and 15 minutes after the administration, these guinea pigs were allowed to inhale for 2 minutes an aerosol of an antigen ovalbumin solution (2 mg/ml) produced with an ultrasonic nebulizer, to cause bronchoconstriction. […] The inhibition rate of the drug-treated group was determined relative to the bronchoconstriction of the solvent-treated group measured 8 minutes after the antigen inhalation.

Mouse = test: Toxic effect on mouse, intravenous; format: in vivo
Excerpt: The toxicity of the compounds of the present invention was investigated.

In the case of `CN(CC(CCN1CCc2nc3c(cc2C1)CCCC3)c1ccc(Cl)c(Cl)c1)C(=O)c1ccccc1` (single isomer, unassigned) [Example 25, 2-[(-)-4-(N-benzoyl-N-methyl)amino-3-(3,4-dichlorophenylbutyll-1,2,3,4,6,7,8,9-octahydro-benzo[b][1,6]naphthyridine fumarate], the IC50 (NK-2 receptors [1]) is reported as 56 nM, the IC50 (NK-3 receptors) is reported as 180 nM and the “Inhibition (rate), stimulation of NK-2 receptors” value (NK-2 receptors [2]; 1 μmol/kg intravenous, 3 min after administration) is reported as 94.2%. The “Inhibition (rate), stimulation of NK-2 receptors” value (NK-2 receptors [2]; 8 μmol/kg oral, 50 min after administration) was 67.2%, the “Inhibition (rate), inhalation of antigen” value [3] was 54.1% and the Toxicity (Mouse; 22 μmol/kg intravenous) was “None”. The Toxicity (Mouse; 65 μmol/kg intravenous) was “None”.
